Measurements: PubChem BioAssay (NCI)
Values joined by “and” are separate entries in the source; they are usually repeats but may differ in a detail not shown here. Equal entries are not always repeated.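 1) Cells in 96-well plates. 2) Compound, 48 h, 5 concentrations. 3) Linear interpolation between surrounding doses. 4) Unreached endpoint = highest concentration. GI50: concentration for 50% inhibition of growth. At the TGI there is no net growth.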

test system: MDA-MB-468 breast; experiment: NCI anticancer screen, dose series, 48 h

Row | SMILES | GI50 | TGI
1 | CCN(CC)CCn1c(=N)n(CC(O)c2ccc(Cl)c(Cl)c2)c2ccccc21 (centres undefined) | 2490 nM | 8090 nM
2 | COc1ccc(/C=C2/SC(=Nc3c(C)nn(-c4ccccc4)c3N)NC2=O)cc1 | 3240 nM | 12400 nM
3 | N#C/C(=C\c1ccc(-c2ccc(F)cc2)o1)C(=O)Nc1ncc(Cc2ccc(Cl)cc2Cl)s1 | 2170 nM | 5010 nM
4 | C=C1C(=O)OC(CCCCCCCC)C1C(=O)O (centres undefined) | 5610 nM | 16700 nM
5 | Cc1cc(Cl)n2c(nc3ccccc32)c1C#N | 394 nM | 1840 nM
6 | CC/C(=C(\c1ccccc1)c1ccc(OCCN(C)C)cc1)c1ccccc1 | 1340 nM and 1950 nM and 3920 nM | 6480 nM and 5440 nM and 7970 nM
7 | CC[C@]1(O)C[C@@H]2CN(Cc3c([nH]c4ccccc34)[C@@](C(=O)OC)(c3cc4c(cc3OC)N(C)[C@H]3[C@@](O)(C(=O)OC)[C@H](OC(C)=O)[C@]5(CC)[C@@H]6C[C@@H]6CN6CC[C@]43[C@@H]65)C2)C1 | 17 nM | –
8 | FC(F)(F)c1ccc2nc(-c3nc(-c4ccccc4)n4ccccc34)[nH]c2c1 | 2020 nM | 7310 nM
9 | CC/C=C/[C@@H]1C=C[C@@H]2CCC[C@H]2[C@@H]1CC[C@H](O)[C@H](C)N | 1240 nM | 2690 nM
10 | CCc1cc(C(N)=O)ccc1-n1nc(C(C)C)c2c(-n3cnc(-c4cnn(C)c4)c3)ccnc21 | 821 nM | > 22200 nM
11 | O=c1ccc2nc(-c3ccccc3)nn(-c3ccccc3)c-2c1 | 1020 nM | 2400 nM
12 | CCOC(=O)c1cnc2ccc(Cl)cc2c1NCCCN(C)C | 16200 nM | 45400 nM
13 | CCN(CC)CCCCCCCCNc1c2ccc(Cl)cc2nc2ccc(OC)cc12 | 1440 nM | 2770 nM
14 | CCOc1ccc([C@H]2C(C(=O)c3ccc(Cl)cc3)C3(N[C@@H]2c2ccccc2)C(=O)Nc2ccc(Br)cc23)cc1 (some centres undefined) | 16600 nM | 41800 nM
15 | CCCCc1ccc2nc(NC(=O)OC)[nH]c2c1 | 107 nM | 1600 nM
16 | COc1ccccc1/C=C1\COc2ccc(O)c(O)c2C1=O | 1240 nM | 3290 nM
17 | O=C(Nc1ccc(Cl)c(Cl)c1)Nc1ccc(Cl)c([N+](=O)[O-])c1 | 884 nM | 3520 nM
18 | C=C1C(=O)O[C@@H]2[C@@H]3O[C@@](C)(CC/C=C(\C)CCC[C@@H]2C)[C@H](O)C[C@@H]13 | 1150 nM | 2800 nM
19 | Cc1ccc(CCC(=O)Nc2ncc(Cc3cc(Cl)ccc3Cl)s2)o1 | 266 nM | 20700 nM
20 | C#Cc1cccc(NC(=O)Nc2ccccc2NC(=O)CCl)c1 | 16000 nM | 39300 nM
21 | N#Cc1c(N)nn(C(=O)c2ccc(NC(=O)c3ccccn3)cc2)c1-c1ccc(Cl)cc1 | 2430 nM | 6640 nM
22 | COc1cc([C@@H]2c3cc4c(cc3[C@H](OC3OC5COC(c6ccccc6)OC5C(O)C3O)[C@H]3COC(=O)[C@H]23)OCO4)cc(OC)c1OC (some centres undefined) | 472 nM | 19600 nM

Row | SMILES | GI50 | TGI
23 | C(=N\Nc1ncc(-c2cc3cc4c(cc3o2)OCO4)s1)/c1c[nH]c2ccccc12 | 1010 nM | 6050 nM
24 | O=C(CCCCCCc1nc2ccc(Br)cc2[nH]1)NO | 248 nM | 6370 nM
25 | Cc1ncc(C(=O)Nc2ccc(CN3CCN(C)CC3)c(C(F)(F)F)c2)cc1C#Cc1c(N)ncc2ccc(C#N)cc12 | 7860 nM | 28100 nM
26 | COc1ccc(C(=O)CC2(O)C(=O)Nc3c(Cl)ccc(Cl)c32)cc1 (centres undefined) | 536 nM | –
27 | COc1ccc(CN2CCc3c(Cl)nc(N)nc3C2=O)c(OC)c1 | 5850 nM | 33100 nM
28 | Cc1cc2c(-c3nc4ccccc4[nH]3)c(O)c(O)cc2c(O)c1-c1c(C)cc2c(-c3nc4ccccc4[nH]3)c(O)c(O)cc2c1O | 20 nM | 601 nM
29 | COc1ccc(C(=O)c2cc3c(N)c(C(=O)Nc4cccc(Cl)c4)sc3nc2C)cc1 | 859 nM | 2830 nM
30 | CCc1nc(N)nc(N)c1-c1ccc(Cl)cc1 | 11400 nM | > 100000 nM
31 | COC12C=C/C(=C(/C(=O)OCc3ccncn3)C(=O)CCCCCCCCC3(OC)C=C/C(=C(/C(=O)OCc4ccncn4)C(=O)CCCCCCCC1)O3)O2 | 239 nM | 682 nM
32 | CCOC(=O)c1cc2c(n1Cc1cccc(OC)c1)-c1oncc1CC2 | 346 nM | 2490 nM
33 | O=C(Nc1ccccc1)c1cc2c(cc1Cl)Sc1nccn1S2(=O)=O | 5470 nM | 26300 nM
34 | CC(C)(O)Cn1c(=O)c(Oc2ccc(F)cc2F)cc2cnc(NC3CCOCC3)nc21 | > 25000 nM | > 25000 nM
35 | CC(C)Oc1cc(OCC(=O)O)cc(C(=O)N(CCC(N)=O)C(=O)Nc2ccc(C(=O)O)cc2OC(C)C)c1 | > 100000 nM | > 100000 nM
36 | COc1ccc([C@H]2c3cc(OC)c(OC)cc3C=C(C=O)C2CO)cc1OC (some centres undefined) | 2550 nM | 25100 nM
37 | COc1cc(-c2cc(-c3ccc(N(C)C)cc3)nc(N3CCC(O)CC3)c2C#N)cc(OC)c1OC | 1110 nM | 4080 nM
38 | CCOC(=O)c1c(NC(=O)c2ccc(C(F)(F)F)cc2)sc2c3c(ccc12)OCN(C)C3 | 1560 nM | 3180 nM
39 | CCN1CCN(C(=O)[C@]23CC[C@@H](C)[C@H](C)[C@@H]2C2=CC[C@@H]4[C@@]5(C)C/C(=C/c6cccnc6)C(=O)C(C)(C)[C@@H]5CC[C@@]4(C)[C@]2(C)CC3)CC1 | 1650 nM | 3430 nM
40 | O=C1CCC/C=C\C[C@H]2C=C(Cl)C(=O)/C2=C/C[C@H](CCCCC(F)(F)F)OC(=O)CCC/C=C\C[C@H]2C=C(Cl)C(=O)/C2=C/C[C@H](CCCCC(F)(F)F)O1 | 239 nM | 721 nM
41 | COc1cc[c]([Hg][Cl])cc1 | 1660 nM | 3350 nM
42 | COc1c(O)c2ccccc2c2cc(O)ccc12 | 3700 nM | 15000 nM
43 | CCN1CCC(C(=O)Nc2n[nH]c3nnc(-c4cccc(F)c4F)cc23)CC1 | 2320 nM | 6780 nM
